Each molecule was assayed on barnyard grass (assay: Test Example 3: herbicidal effect by foliage application, Wagner pot (Table 18, symbol H)). Conditions: 320 g/ha.
Format: in vivo, barnyard grass (Echinochloa crus-galli)
Summary of the method: (§1)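 Plants were sown in alluvial soil held under 0.1–0.5 cm standing water and grown 14 days in a greenhouse at 25–30 °C. An emulsifiable formulation, water-diluted to the set dose, was then sprayed onto the foliage, and effects were scored three weeks later using previously defined criteria.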
With `COc1cc(F)ccc1-c1sc2ccccc2c1-c1c(O)c(OC)nn(C)c1=O` [1-176] the “herbicidal effect on H (barnyard grass), rating 0-5” value was 4 (Herbicidal rate of 70% or more and less than 90%).

What follows are molecules tested on Chinese sprangletop (assay: Test Example 3: herbicidal effect by foliage application, Wagner pot (Table 18, symbol D)). Conditions: 320 g/ha.
Format: in vivo, chinese sprangletop (Leptochloa chinensis)
Summary of the method: as §1
For `COc1cc(F)ccc1-c1sc2ccccc2c1-c1c(O)c(OC)nn(C)c1=O` [1-176], the “herbicidal effect on D (Chinese sprangletop), rating 0-5” value was 3 (Herbicidal rate of 40% or more and less than 70%).

The molecules below were run on rice flat sedge (assay: Test Example 3: herbicidal effect by foliage application, Wagner pot (Table 18, symbol E)). Conditions: 320 g/ha.
Format: in vivo, rice flat sedge (Cyperus iria)
Summary of the method: as §1
`COc1cc(F)ccc1-c1sc2ccccc2c1-c1c(O)c(OC)nn(C)c1=O` [1-176] was tested, and the “herbicidal effect on E (rice flat sedge), rating 0-5” value was 5 (Herbicidal rate of 90% or more (almost completely withered)).

The molecules below were run on southern crabgrass (assay: Test Example 4: herbicidal effect by soil treatment (Table 19, symbol F)). Conditions: AAH 320 g/ha.
Format: in vivo, southern crabgrass (Digitaria ciliaris)
Summary of the method: (§2)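 Pre-emergence style soil spray: seeds under ~1.5 cm sterilized diluvial soil received a uniform coat of emulsion diluted to the predetermined herbicide amount. Greenhouse 25–30° C; readout at week three on previously defined criteria.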
In the case of `COc1cc(F)ccc1-c1sc2ccccc2c1-c1c(O)c(OC)nn(C)c1=O` [1-176], the “F: southern crabgrass, herbicidal effect rating” value is reported as 4 (Herbicidal rate of 70% or more and less than 90%).

These molecules were tested on green foxtail (assay: Test Example 4: herbicidal effect by soil treatment (Table 19, symbol G)). Conditions: AAH 320 g/ha.
Format: in vivo, green foxtail (Setaria viridis)
Summary of the method: as §2
For `COc1cc(F)ccc1-c1sc2ccccc2c1-c1c(O)c(OC)nn(C)c1=O` [1-176], the “G: green foxtail, herbicidal effect rating” value was 5 (Herbicidal rate of 90% or more (almost completely withered)).

Each molecule was assayed on barnyard grass (assay: Test Example 4: herbicidal effect by soil treatment (Table 19, symbol H)). Conditions: AAH 320 g/ha.
Format: in vivo, barnyard grass (Echinochloa crus-galli)
Summary of the method: as §2
For `COc1cc(F)ccc1-c1sc2ccccc2c1-c1c(O)c(OC)nn(C)c1=O` [1-176], the “H: barnyard grass, herbicidal effect rating” value was 5 (Herbicidal rate of 90% or more (almost completely withered)).

What follows are molecules tested on wild oat (assay: Test Example 4: herbicidal effect by soil treatment (Table 19, symbol I)). Conditions: AAH 320 g/ha.
Format: in vivo, wild oat (Avena fatua)
Summary of the method: as §2
With `COc1cc(F)ccc1-c1sc2ccccc2c1-c1c(O)c(OC)nn(C)c1=O` [1-176] the “I: wild oat, herbicidal effect rating” value was 3 (Herbicidal rate of 40% or more and less than 70%).

These molecules were tested on blackgrass (assay: Test Example 4: herbicidal effect by soil treatment (Table 19, symbol J)). Conditions: AAH 320 g/ha.
Format: in vivo, blackgrass (Alopecurus myosuroides)
Summary of the method: as §2
With `COc1cc(F)ccc1-c1sc2ccccc2c1-c1c(O)c(OC)nn(C)c1=O` [1-176] the “J: blackgrass, herbicidal effect rating” value was 5 (Herbicidal rate of 90% or more (almost completely withered)).

What follows are molecules tested on Italian ryegrass (assay: Test Example 4: herbicidal effect by soil treatment (Table 19, symbol K)). Conditions: AAH 320 g/ha.
Format: in vivo, Italian ryegrass (Lolium multiflorum)
Summary of the method: as §2
With `COc1cc(F)ccc1-c1sc2ccccc2c1-c1c(O)c(OC)nn(C)c1=O` [1-176] the “K: Italian ryegrass, herbicidal effect rating” value was 1 (Herbicidal rate of 5% or more and less than 20%).

Each molecule was assayed on windgrass (assay: Test Example 4: herbicidal effect by soil treatment (Table 19, symbol L)). Conditions: AAH 320 g/ha.
Format: in vivo, windgrass (Apera spica-venti)
Summary of the method: as §2
For `COc1cc(F)ccc1-c1sc2ccccc2c1-c1c(O)c(OC)nn(C)c1=O` [1-176], the “L: windgrass, herbicidal effect rating” value was 5 (Herbicidal rate of 90% or more (almost completely withered)).

What follows are molecules tested on velvetleaf (assay: Test Example 4: herbicidal effect by soil treatment (Table 19, symbol M)). Conditions: AAH 320 g/ha.
Format: in vivo, velvetleaf (Abutilon theophrasti)
Summary of the method: as §2
`COc1cc(F)ccc1-c1sc2ccccc2c1-c1c(O)c(OC)nn(C)c1=O` [1-176] was tested, and the “M: velvetleaf, herbicidal effect rating” value was 1 (Herbicidal rate of 5% or more and less than 20%).

Each molecule was assayed on redroot pigweed (assay: Test Example 4: herbicidal effect by soil treatment (Table 19, symbol N)). Conditions: AAH 320 g/ha.
Format: in vivo, redroot pigweed (Amaranthus retroflexus)
Summary of the method: as §2
For `COc1cc(F)ccc1-c1sc2ccccc2c1-c1c(O)c(OC)nn(C)c1=O` [1-176], the “N: redroot pigweed, herbicidal effect rating” value was 5 (Herbicidal rate of 90% or more (almost completely withered)).

The molecules below were run on lambsquarters (assay: Test Example 4: herbicidal effect by soil treatment (Table 19, symbol O)). Conditions: AAH 320 g/ha.
Format: in vivo, lambsquarters (Chenopodium album)
Summary of the method: as §2
`COc1cc(F)ccc1-c1sc2ccccc2c1-c1c(O)c(OC)nn(C)c1=O` [1-176] was tested, and the “O: lambsquarters, herbicidal effect rating” value was 4 (Herbicidal rate of 70% or more and less than 90%).

These molecules were tested on chickweed (assay: Test Example 4: herbicidal effect by soil treatment (Table 19, symbol P)). Conditions: AAH 320 g/ha.
Format: in vivo, common chickweed (Stellaria media)
Summary of the method: as §2
`COc1cc(F)ccc1-c1sc2ccccc2c1-c1c(O)c(OC)nn(C)c1=O` [1-176] was tested, and the “P: chickweed, herbicidal effect rating” value was 5 (Herbicidal rate of 90% or more (almost completely withered)).

What follows are molecules tested on persian speedwell (assay: Test Example 4: herbicidal effect by soil treatment (Table 19, symbol R)). Conditions: AAH 320 g/ha.
Format: in vivo, Persian speedwell (Veronica persica)
Summary of the method: as §2
In the case of `COc1cc(F)ccc1-c1sc2ccccc2c1-c1c(O)c(OC)nn(C)c1=O` [1-176], the “R: persian speedwell, herbicidal effect rating” value is reported as 5 (Herbicidal rate of 90% or more (almost completely withered)).

What follows are molecules tested on southern crabgrass (assay: Test Example 5: herbicidal effect by foliage application, plastic box (Table 20, symbol F)). Conditions: foliage application, AAH 320 g/ha, three weeks after application.
Format: in vivo, southern crabgrass (Digitaria ciliaris)
Summary of the method: (§3)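 Plants were sown into sterilized diluvial soil under about 1.5 cm cover and kept in a greenhouse at 25° C. to 30° C. Fourteen days on, foliage received an even spray of the diluted emulsion. Herbicidal or crop effect was judged three weeks afterwards.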
For `COc1cc(F)ccc1-c1sc2ccccc2c1-c1c(O)c(OC)nn(C)c1=O` [1-176], the “F: southern crabgrass, herbicidal effect” value was 4 (Herbicidal rate of 70% or more and less than 90%).

Each molecule was assayed on green foxtail (assay: Test Example 5: herbicidal effect by foliage application, plastic box (Table 20, symbol G)). Conditions: foliage application, AAH 320 g/ha, three weeks after application.
Format: in vivo, green foxtail (Setaria viridis)
Summary of the method: as §3
With `COc1cc(F)ccc1-c1sc2ccccc2c1-c1c(O)c(OC)nn(C)c1=O` [1-176] the “G: green foxtail, herbicidal effect” value was 5 (Herbicidal rate of 90% or more (almost completely withered)).

Each molecule was assayed on barnyard grass (assay: Test Example 5: herbicidal effect by foliage application, plastic box (Table 20, symbol H)). Conditions: foliage application, AAH 320 g/ha, three weeks after application.
Format: in vivo, barnyard grass (Echinochloa crus-galli)
Summary of the method: as §3
For `COc1cc(F)ccc1-c1sc2ccccc2c1-c1c(O)c(OC)nn(C)c1=O` [1-176], the “H: barnyard grass, herbicidal effect” value was 5 (Herbicidal rate of 90% or more (almost completely withered)).

Each molecule was assayed on wild oat (assay: Test Example 5: herbicidal effect by foliage application, plastic box (Table 20, symbol I)). Conditions: foliage application, AAH 320 g/ha, three weeks after application.
Format: in vivo, wild oat (Avena fatua)
Summary of the method: as §3
`COc1cc(F)ccc1-c1sc2ccccc2c1-c1c(O)c(OC)nn(C)c1=O` [1-176] was tested, and the “I: wild oat, herbicidal effect” value was 4 (Herbicidal rate of 70% or more and less than 90%).

What follows are molecules tested on blackgrass (assay: Test Example 5: herbicidal effect by foliage application, plastic box (Table 20, symbol J)). Conditions: foliage application, AAH 320 g/ha, three weeks after application.
Format: in vivo, blackgrass (Alopecurus myosuroides)
Summary of the method: as §3
`COc1cc(F)ccc1-c1sc2ccccc2c1-c1c(O)c(OC)nn(C)c1=O` [1-176] was tested, and the “J: blackgrass, herbicidal effect” value was 4 (Herbicidal rate of 70% or more and less than 90%).

The molecules below were run on Italian ryegrass (assay: Test Example 5: herbicidal effect by foliage application, plastic box (Table 20, symbol K)). Conditions: foliage application, AAH 320 g/ha, three weeks after application.
Format: in vivo, Italian ryegrass (Lolium multiflorum)
Summary of the method: as §3
`COc1cc(F)ccc1-c1sc2ccccc2c1-c1c(O)c(OC)nn(C)c1=O` [1-176] was tested, and the “K: Italian ryegrass, herbicidal effect” value was 3 (Herbicidal rate of 40% or more and less than 70%).

The molecules below were run on windgrass (assay: Test Example 5: herbicidal effect by foliage application, plastic box (Table 20, symbol L)). Conditions: foliage application, AAH 320 g/ha, three weeks after application.
Format: in vivo, windgrass (Apera spica-venti)
Summary of the method: as §3
For `COc1cc(F)ccc1-c1sc2ccccc2c1-c1c(O)c(OC)nn(C)c1=O` [1-176], the “L: windgrass, herbicidal effect” value was 5 (Herbicidal rate of 90% or more (almost completely withered)).

What follows are molecules tested on velvetleaf (assay: Test Example 5: herbicidal effect by foliage application, plastic box (Table 20, symbol M)). Conditions: foliage application, AAH 320 g/ha, three weeks after application.
Format: in vivo, velvetleaf (Abutilon theophrasti)
Summary of the method: as §3
In the case of `COc1cc(F)ccc1-c1sc2ccccc2c1-c1c(O)c(OC)nn(C)c1=O` [1-176], the “M: velvetleaf, herbicidal effect” value is reported as 5 (Herbicidal rate of 90% or more (almost completely withered)).

What follows are molecules tested on redroot pigweed (assay: Test Example 5: herbicidal effect by foliage application, plastic box (Table 20, symbol N)). Conditions: foliage application, AAH 320 g/ha, three weeks after application.
Format: in vivo, redroot pigweed (Amaranthus retroflexus)
Summary of the method: as §3
With `COc1cc(F)ccc1-c1sc2ccccc2c1-c1c(O)c(OC)nn(C)c1=O` [1-176] the “N: redroot pigweed, herbicidal effect” value was 5 (Herbicidal rate of 90% or more (almost completely withered)).

What follows are molecules tested on lambsquarters (assay: Test Example 5: herbicidal effect by foliage application, plastic box (Table 20, symbol O)). Conditions: foliage application, AAH 320 g/ha, three weeks after application.
Format: in vivo, lambsquarters (Chenopodium album)
Summary of the method: as §3
`COc1cc(F)ccc1-c1sc2ccccc2c1-c1c(O)c(OC)nn(C)c1=O` [1-176] was tested, and the “O: lambsquarters, herbicidal effect” value was 5 (Herbicidal rate of 90% or more (almost completely withered)).

The molecules below were run on chickweed (assay: Test Example 5: herbicidal effect by foliage application, plastic box (Table 20, symbol P)). Conditions: foliage application, AAH 320 g/ha, three weeks after application.
Format: in vivo, common chickweed (Stellaria media)
Summary of the method: as §3
With `COc1cc(F)ccc1-c1sc2ccccc2c1-c1c(O)c(OC)nn(C)c1=O` [1-176] the “P: chickweed, herbicidal effect” value was 5 (Herbicidal rate of 90% or more (almost completely withered)).

These molecules were tested on persian speedwell (assay: Test Example 5: herbicidal effect by foliage application, plastic box (Table 20, symbol R)). Conditions: foliage application, AAH 320 g/ha, three weeks after application.
Format: in vivo, Persian speedwell (Veronica persica)
Summary of the method: as §3
With `COc1cc(F)ccc1-c1sc2ccccc2c1-c1c(O)c(OC)nn(C)c1=O` [1-176] the “R: persian speedwell, herbicidal effect” value was 5 (Herbicidal rate of 90% or more (almost completely withered)).

From US20230085307A1, “PYRIDAZINONE COMPOUND AND HERBICIDE” (NISSAN CHEMICAL CORPORATION, priority 2019, published 2023)
